Tests used:
Assay type in all cases: physicochemical
[1] = Stability of aceclidine in F6H8; settings: dissolved in F6H8, 25° C., 1, 3, 6, 9 and 12 months
Description: Aceclidine is dissolved in F6H8 as described in Example 17. The level of aceclidine is measured by the GC method at 25° C. at 1, 3, 6, 9 and 12 months. The aceclidine in the formulation is defined as stable if the level is maintained between 90-110% of the original level.

[2] = Solubility of aceclidine in exemplary formulations; settings: for Aceclidine solubility: Unsaturated
Description: An appropriate amount of aceclidine was dissolved in various MCT (to obtain a mixed solution), then SFA (F6H8 or F4H5) was added to the solution in the indicated proportions and the solution was mixed well with magnetic stirring.

[3] = Solubility of aceclidine in F6H8, MCT and 10% MCT in F6H8 by GC; settings: GC method
Description: 5 mg aceclidine was added into a PP tube, 1 ml of F6H8 was added, the PP tube was shaken for about 5 minutes and aceclidine was completely dissolved in the solution. Further 18 mg aceclidine was added, and shaking was continued until no insoluble substance was found. […] The phenomenon disappeared after re-shaking.
The above formulations were centrifuged and the supernatants filtered through 0.45 micron filters without further dilution. One sample was prepared from each solvent for GC analysis.
The GC protocols and parameters are listed below:
Injection Volume: 0.5 ul (Direct injection)
Detector Temp (FID): 300° C.
Gradient: 70° C. (hold 2 min)→12° C./min→280° C. (hold 7 min)
20 mg aceclidine was added into a PP tube, and 1 ml MCT was added. The PP tube was shaken for about 5 minutes and the resulting solution became clear. Further 40 mg of aceclidine was added. The PP tube was shaken again. […] The phenomenon disappeared after re-shaking. A small sample was taken and solubility was determined according to the GC method described in Example 17.
Sample preparation was prepared and analyzed based on the protocols described in Examples 17 and 18.

[4] = Solubility of Acoltremon (AR-15512) in exemplary formulations
From the text: (§1) Time (min) % Mobile Phase A % Mobile Phase B

[5] = Solubility of axitinib in exemplary formulations
Description: Mobile phase A: 0.05% TFA-H2O
Mobile phase B: 0.05% TFA-Acetonitrile
Flow rate: 1.0 mL/min Wavelength: 362 nm
Injection volume: 30 μL Column temperature: 40° C.

[6] = Solubility of lifitegrast in exemplary formulations
Description: Chromatographic column: Agilent ZORBAX SB-C18, 4.6*250 mm, 5 μm Mobile phase A: 0.1% Phosphoric Acid-H2O Mobile phase B: Acetonitrile Flow rate: 1.0 mL/min Wavelength: UV/220 nm Injection volume: 10 μL Column temperature: 35° C.
Since the auxiliary peaks of MCM and MC8-2 overlapped with the main peaks in the above gradient method, the analytical methods for MCM and MC8-2 were adjusted as follows: Chromatographic column: Agilent ZORBAX SB-C18, 4.6*250 mm, 5 μm Mobile phase A: 0.1% Phosphoric Acid-H2O Mobile phase B: Acetonitrile Flow rate: 1.0 mL/min Wavelength: UV/220 nm Injection volume: 10 μL Column temperature: 35° C.

[7] = Solubility of lotilaner in exemplary formulations
From the text: as §1

[8] = Solubility of ivermectin (CBT-273) in exemplary formulations
Description: The obtained mixture was filtered through 0.22 μm filter and the filtrated solution was analyzed by GC.
Shim-pack GIST C18 5 μm, 4.6 (ID) mm×250 mm (L), 5 μm Mobile phase: Acetonitrile: Methanol: Water=55:35:10 (v:v:v) Flow rate: 1.0 mL/min Wavelength: 214 nm Injection volume: 10 μL Column temperature: 45° C.

CC(=O)OC1CN2CCC1CC2 (stereo not shown) [Aceclidine, aceclidine]
stability (level maintained between 90-110% of the original level) [1]: remains stable
aceclidine concentration that is stable and uniform ([2]; 10% Captex 355/F6H8, RT): 1.5%-2% is stable
Aceclidine solubility ([2]; 10% Captex 355/F6H8, RT): > 21.4(Unsaturated), mg/g
aceclidine concentration that is stable and uniform ([2]; 10% Captex 8000/F6H8, RT): 2% is stable and
Aceclidine solubility ([2]; 10% Captex 8000/F6H8, RT): > 17.0(Unsaturated), mg/g
Aceclidine solubility ([2]; 10% MCT/90% F6H8, RT): > 17.0(Unsaturated) mg/g
Aceclidine solubility ([2]; 100% Captex 300, RT): > 66.7(Unsaturated) mg/g
Aceclidine solubility ([2]; 100% Captex 355, RT): > 203.4(Unsaturated) mg/g
Aceclidine solubility ([2]; 100% Captex 8000, RT): > 164.0(Unsaturated) mg/g
Aceclidine solubility ([2]; 100% MCT, RT): > 320.9(Unsaturated) mg/g
solubility of aceclidine in 10% MCT in F6H8 [3]: around 2 % (w/v)
solubility of aceclidine in F6H8 [3]: around 1.5 % (w/v)
solubility of aceclidine in MCT [3]: around 5 % (w/v)

COc1ccc(NC(=O)[C@@H]2C[C@H](C)CC[C@H]2C(C)C)cc1 [Acoltremon (AR-15512), (1R,2S,5R)—N-(4-methoxyphenyl)-5-methyl-2-(1-methylethyl) cyclohexanecarboxamide]
Acoltremon (AR-15512) Saturated solubility ([4]; 10% Captex 170/90% F4H5, RT): 0.21 mg/g
Acoltremon (AR-15512) Saturated solubility ([4]; 10% Captex 200P / 90% F4H5, RT): 0.36 mg/g
Acoltremon (AR-15512) Saturated solubility ([4]; 10% Captex 200P/90% F6H8, RT): 0.36 mg/g
Acoltremon (AR-15512) Saturated solubility ([4]; 10% Captex 355/90% F6H8, RT): 0.7 mg/g
Acoltremon (AR-15512) Saturated solubility ([4]; 10% MCT/90% F4H5, RT): 0.28 mg/g
Acoltremon (AR-15512) Saturated solubility ([4]; 10% MCT/90% F6H8, RT): 0.29 mg/g
Acoltremon (AR-15512) Saturated solubility ([4]; 20% Captex 170/80% F4H5, RT): 0.42 mg/g
Acoltremon (AR-15512) Saturated solubility ([4]; 20% Captex 170/80% F6H8, RT): 0.43 mg/g
Acoltremon (AR-15512) Saturated solubility ([4]; 20% Captex 200P / 80% F4H5, RT): 0.66 mg/g
Acoltremon (AR-15512) Saturated solubility ([4]; 20% Captex 200P / 80% F6H8, RT): 0.53 mg/g
Acoltremon (AR-15512) Saturated solubility ([4]; 20% MCT/80% F4H5, RT): 0.55 mg/g
Acoltremon (AR-15512) Saturated solubility ([4]; 20% MCT/80% F6H8, RT): 0.55 mg/g
Acoltremon (AR-15512) Saturated solubility ([4]; 100% Captex 170, RT): 2.03 mg/g
Acoltremon (AR-15512) Saturated solubility ([4]; 100% Captex 200P, RT): 3.21 mg/g
Acoltremon (AR-15512) Saturated solubility ([4]; 100% Captex 8000, RT): 1.84 mg/g
Acoltremon (AR-15512) Saturated solubility ([4]; 100% F4H5, RT): 0.064 mg/g
Acoltremon (AR-15512) Saturated solubility ([4]; 100% F6H8, RT): 0.055 mg/g
Acoltremon (AR-15512) Saturated solubility ([4]; 100% MCT, RT): 3.12 mg/g

CNC(=O)c1ccccc1Sc1ccc2c(/C=C/c3ccccn3)n[nH]c2c1 [Axitinib]
Axitinib Saturated solubility ([5]; 100% Captex 300, RT): 0.022 mg/g
Axitinib Saturated solubility ([5]; 100% Captex 355, RT): 0.03 mg/g
Axitinib Saturated solubility ([5]; 100% Captex 8000, RT): 0.1 mg/g

CS(=O)(=O)c1cccc(C[C@H](NC(=O)c2c(Cl)cc3c(c2Cl)CCN(C(=O)c2ccc4ccoc4c2)C3)C(=O)O)c1 [Lifitegrast, lifitegrast]
Lifitegrast Saturated solubility ([6]; 10% MCT/90% F6H8, RT): 0 mg/g
Lifitegrast Saturated solubility ([6]; 20% MCT/80% F6H8, RT): 0 mg/g
Lifitegrast Saturated solubility ([6]; 50% MCT/50% F6H8, RT): 0.004 mg/g
Lifitegrast Saturated solubility ([6]; 100% Captex 300, RT): 0.28 mg/g
Lifitegrast Saturated solubility ([6]; 100% Captex 355, RT): 0.27 mg/g
Lifitegrast Saturated solubility ([6]; 100% Captex 8000, RT): 0.56 mg/g

Cc1cc(C2=NO[C@@](c3cc(Cl)c(Cl)c(Cl)c3)(C(F)(F)F)C2)sc1C(=O)NCC(=O)NCC(F)(F)F [Lotilaner, lotilaner]
Lotilaner solubility ([7]; 10% Captex 300/90% F6H8, RT): 1.21 mg/g
Lotilaner solubility ([7]; 10% Captex 8000/90% F6H8, RT): 3.47 mg/g
Lotilaner solubility ([7]; 10% MCT/90% F6H8, RT): 2.7 mg/g
Lotilaner solubility ([7]; 20% MCT/80% F6H8, RT): 5.42 mg/g
Lotilaner solubility ([7]; 100% Captex 300 (Unsaturated), RT): > 11.32 mg/g
Lotilaner solubility ([7]; 100% Captex 8000 (Unsaturated), RT): > 29.04 mg/g
Lotilaner solubility ([7]; 100% MCT (Unsaturated), RT): > 25.47 mg/g

ivermectin [Ivermectin (CBT-273)]
Ivermectin (CBT-273) Saturated solubility ([8]; 10% Captex 300/90% F6H8, RT): 1.35 mg/g
Ivermectin (CBT-273) Saturated solubility ([8]; 10% Captex 355/90% F4H5, RT): 0.61 mg/g
Ivermectin (CBT-273) Saturated solubility ([8]; 10% Captex 355/90% F6H8, RT): 0.46 mg/g
Ivermectin (CBT-273) Saturated solubility ([8]; 10% Captex 8000/90% F6H8, RT): 1.36 mg/g
Ivermectin (CBT-273) Saturated solubility ([8]; 20% Captex 355/80% F4H5, RT): 3.03 mg/g
Ivermectin (CBT-273) Saturated solubility ([8]; 20% Captex 355/80% F6H8, RT): 3.87 mg/g
Ivermectin (CBT-273) Saturated solubility ([8]; 100% Captex 355, RT): 26.51 mg/g
Ivermectin (CBT-273) Saturated solubility ([8]; 100% Captex 8000, RT): 34.62 mg/g
Ivermectin (CBT-273) Saturated solubility ([8]; 100% Captex ® 300, RT): 27.91 mg/g
Ivermectin (CBT-273) Saturated solubility ([8]; 100% F4H5, RT): 0.12 mg/g
Ivermectin (CBT-273) Saturated solubility ([8]; 100% F6H8, RT): 0.04 mg/g

Reference: patent US20260130896A1, “COMPOSITIONS AND METHODS FOR DELIVERY OF OPHTHALMOLOGICAL ACTIVES” (ADS Therapeutics LLC, priority 2023, published 2026)
